The record followed here is ChEMBL document CHEMBL1201862, “PubChem BioAssay data set” (2004).

Among the test systems are 786-0; A498; CAKI-1; CCRF-CEM; DU-145; HCT-116; HCT-15; HOP-62; HOP-92; HT-29; IGROV-1; LOX IMVI; MDA-MB-435; OVCAR-3; OVCAR-8; SF-295; SK-MEL-2; SN12C; SR; SW-620.
What all share (test): DTP human tumour cell line panel, 48 h

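Cultured in 96-well plates, cells were exposed to test compound for 48 hours across five concentrations. GI50 = concentration required for 50% inhibition of growth.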 Active and inactive are the calls of the source. No stated cut-off is given here; in the data, active = GI50 up to about 1.1 µM and inactive = higher. Some results are limits rather than exact numbers.

`O=[N+]([O-])/C(C(Cl)=C(Cl)Cl)=C(/Br)SCc1ccccc1`: the GI50 in the assay on 786-0 was 2.1 µM (inactive); in the assay on A498, 7.01 µM (inactive); in the assay on CAKI-1 it was 2 µM (inactive); in the assay on CCRF-CEM, 0.277 µM (active); with DU-145, 12.9 µM (inactive); with HCT-116, 1.73 µM (inactive). The GI50 is 2.07 µM with HCT-15; 15.5 µM (inactive) with HOP-62; 1.77 µM (inactive) with HOP-92; 2.11 µM (inactive) in the assay on HT-29; 3.71 µM (inactive) in the assay with IGROV-1; 1.56 µM (inactive) in the assay with LOX IMVI. Moreover, the GI50 was 1.47 µM (inactive) in the assay with MDA-MB-435; 1.86 µM (inactive) with OVCAR-3; 2.61 µM (inactive) with OVCAR-8; 15.9 µM (inactive) with SF-295; 4.42 µM (inactive) in the assay on SK-MEL-2; 2.27 µM (inactive) with SN12C. Moreover, the GI50 with SR is 0.375 µM (active); with SW-620, 1.63 µM (inactive).
As to `CCCCCCCCCCCCCCCCNC(=O)/C(=C\c1ccc(Cl)c(Cl)c1)NC(=O)c1ccccc1`, the GI50 with 786-0 was 19.4 µM (inactive); in the assay with A498, 19.9 µM (inactive); in the assay on CAKI-1, 66.7 µM (inactive); with DU-145 it was 27.4 µM (inactive); in the assay on HCT-116, 37.9 µM (inactive); in the assay on HCT-15, 30.8 µM. Further, the GI50 in the assay with HOP-62 is 21.4 µM (inactive); in the assay on HOP-92 it was 14.2 µM (inactive); in the assay with HT-29, 35.5 µM (inactive); in the assay with IGROV-1, 16.8 µM (inactive); in the assay on LOX IMVI, 21.9 µM (inactive); with MDA-MB-435, > 100 µM (inactive). Also, the GI50 is > 100 µM (inactive) with OVCAR-3; 59.6 µM (inactive) in the assay with OVCAR-8; 55.2 µM (inactive) in the assay with SF-295; > 100 µM (inactive) in the assay on SK-MEL-2; 25.8 µM (inactive) in the assay with SN12C; 18.2 µM (inactive) in the assay on SR. Moreover, in the assay with SW-620, the GI50 was 31.7 µM (inactive).
`CSc1ccc(-c2cc(-c3nc4ccccc4[nH]3)nc(N)c2C#N)cc1`: the GI50 in the assay with 786-0 was 26.1 µM (inactive); in the assay on A498, 15 µM (inactive); in the assay with CAKI-1, 18.3 µM (inactive); in the assay on CCRF-CEM it was 13.3 µM (inactive); in the assay on DU-145, 17.4 µM (inactive); with HCT-116 it was 17.9 µM (inactive). Moreover, the GI50 with HCT-15 is 20.2 µM; with HOP-62, 19.1 µM (inactive); with HOP-92, 8.55 µM (inactive); in the assay with HT-29 it was 21.9 µM (inactive); with IGROV-1, 8.67 µM (inactive); with LOX IMVI, 18.2 µM (inactive). The GI50 in the assay on MDA-MB-435 was 17.7 µM (inactive); with OVCAR-3 it was 16.5 µM (inactive); in the assay on OVCAR-8 it was 31.6 µM (inactive); with SF-295, 21.9 µM (inactive); in the assay on SK-MEL-2 it was 16.9 µM (inactive); with SN12C, 25.8 µM (inactive). Moreover, the GI50 in the assay with SR is 13.1 µM (inactive); in the assay with SW-620, 31.3 µM (inactive).
Take `O=[N+]([O-])c1ccc2c(c1)c1nn2CCCCOc2nn(c3ccc([N+](=O)[O-])cc23)CCCCO1`: the GI50 in the assay with 786-0 is > 100 µM (inactive); in the assay on A498, > 100 µM (inactive); in the assay with CAKI-1, > 100 µM (inactive); in the assay with DU-145, > 100 µM (inactive); in the assay with HCT-116, > 100 µM (inactive); with HCT-15, over 100 µM. Besides, the GI50 was 0.743 µM (active) with HOP-62; > 100 µM (inactive) in the assay with HOP-92; > 100 µM (inactive) in the assay with IGROV-1; > 100 µM (inactive) with LOX IMVI; > 100 µM (inactive) with MDA-MB-435; > 100 µM (inactive) in the assay with OVCAR-3. Further, the GI50 in the assay with OVCAR-8, in the assay on SF-295, with SK-MEL-2, with SN12C and in the assay with SR was > 100 µM (inactive) in each case.
`Cc1ccc(/N=N/C(=N\c2ccc(F)cc2)c2ccc(N(CCC#N)CCC#N)cc2)cc1`: the GI50 is > 100 µM (inactive) in the assay with 786-0; > 100 µM (inactive) with A498; > 100 µM (inactive) with CAKI-1; 97.5 µM (inactive) in the assay with CCRF-CEM; > 100 µM (inactive) in the assay with DU-145; 74.1 µM (inactive) in the assay with HCT-116. In addition, the GI50 is over 100 µM with HCT-15; > 100 µM (inactive) with HOP-62; > 100 µM (inactive) with HOP-92; > 100 µM (inactive) with HT-29; 70.1 µM (inactive) in the assay on IGROV-1; 82.2 µM (inactive) in the assay with MDA-MB-435. In addition, the GI50 was 86.3 µM (inactive) with OVCAR-3; 77.4 µM (inactive) with OVCAR-8; > 100 µM (inactive) in the assay with SF-295; 62.7 µM (inactive) in the assay on SK-MEL-2; > 100 µM (inactive) with SN12C; 74.3 µM (inactive) with SR. Besides, the GI50 with SW-620 is > 100 µM (inactive).
Turning to `CCOC(=O)N1C(=S)C(C(=O)OC)(C(=O)OC)N=C1C`, the GI50 in the assay with 786-0, in the assay with A498, with CAKI-1, in the assay on CCRF-CEM, with DU-145 and in the assay on HCT-116 was > 100 µM (inactive) throughout. Besides, the GI50 in the assay on HCT-15 was over 100 µM; in the assay on HOP-62, > 100 µM (inactive); with HOP-92 it was > 100 µM (inactive); in the assay with IGROV-1 it was > 100 µM (inactive); in the assay on LOX IMVI, > 100 µM (inactive); in the assay on MDA-MB-435 it was > 100 µM (inactive). The GI50 in the assay with OVCAR-3, with OVCAR-8, with SF-295, in the assay with SK-MEL-2, with SN12C and in the assay with SR was > 100 µM (inactive) in each case. For the same molecule, the GI50 in the assay on SW-620 was > 100 µM (inactive).
With `CCCCNCCCNCCCNC(=O)c1csc(-c2csc(CCNC(=O)C(NC(=O)C(C)C(O)C(C)NC(=O)C(NC(=O)c3nc(C(CC(N)=O)NCC(N)C(N)=O)nc(N)c3C)C(OC3OC(CO)C(O)C(O)C3OC3OC(CO)C(O)C(OC(N)=O)C3O)c3c[nH]cn3)C(C)O)n2)n1` (centres undefined), the GI50 in the assay on 786-0 is 0.167 µM (active); in the assay on A498 it was 3.65 µM (inactive); in the assay with CAKI-1 it was 0.362 µM (active); with CCRF-CEM it was 15.6 µM (inactive); in the assay with DU-145 it was 11.1 µM (inactive); with HCT-116, 0.0998 µM (active). The GI50 was 24.9 µM in the assay on HCT-15; 0.174 µM (active) with HOP-62; 0.0798 µM (active) with HOP-92; 25.1 µM (inactive) in the assay on HT-29; 4.04 µM (inactive) in the assay with IGROV-1; 0.105 µM (active) with LOX IMVI. For the same molecule, the GI50 with MDA-MB-435 was 18.7 µM (inactive); with OVCAR-3, 2.86 µM (inactive); in the assay on OVCAR-8, 1.92 µM (inactive); in the assay with SF-295 it was 0.0681 µM (active); in the assay on SK-MEL-2, 2.25 µM (inactive); with SN12C it was 2.21 µM (inactive). Further, the GI50 was 6.44 µM (inactive) in the assay with SR and 15.2 µM (inactive) in the assay on SW-620.
With `C/C(Nc1ccc(Cl)cc1)=C1/CCOC1=O`, the GI50 with 786-0 is > 100 µM (inactive); with A498, > 100 µM (inactive); in the assay with CAKI-1 it was > 66.1 µM (inactive); with CCRF-CEM, 1.55 µM (inactive); in the assay with DU-145 it was 6.31 µM (inactive); in the assay with HCT-15, over 100 µM. Further, the GI50 with HOP-92 is > 100 µM (inactive); in the assay with HT-29 it was 30.1 µM (inactive); in the assay on IGROV-1 it was > 23 µM (inactive); in the assay with LOX IMVI, 0.277 µM (active); in the assay with MDA-MB-435 it was 0.698 µM (active); with OVCAR-3 it was 46.8 µM (inactive). Moreover, the GI50 in the assay on OVCAR-8 is 7.89 µM (inactive); in the assay on SF-295, 6.7 µM (inactive); in the assay on SK-MEL-2, 12.7 µM (inactive); in the assay with SN12C, > 100 µM (inactive); in the assay with SR, 21.5 µM (inactive); with SW-620 it was > 53.2 µM (inactive).
On to `CN(C(=O)CCC(=O)O)c1ccccc1C(=O)O`, for which the GI50 in the assay with 786-0, in the assay with A498, in the assay with CAKI-1, with CCRF-CEM, with DU-145 and in the assay on HCT-116 was > 100 µM (inactive) in each case. For the same molecule, the GI50 in the assay with HCT-15 was over 100 µM; in the assay on HOP-92, > 100 µM (inactive); in the assay on HT-29, > 100 µM (inactive); in the assay with IGROV-1, > 100 µM (inactive); in the assay with LOX IMVI it was > 100 µM (inactive); with MDA-MB-435 it was > 100 µM (inactive). Moreover, the GI50 in the assay with OVCAR-3, in the assay with OVCAR-8, in the assay on SF-295, in the assay with SK-MEL-2, in the assay on SR and with SW-620 was > 100 µM (inactive) in each case.
For the molecule `CC(=O)OC12c3ccccc3-c3ccccc3C1C(C(=O)O)C2C(=O)O` (centres undefined), the GI50 with 786-0 was > 10 µM (inactive); in the assay with A498, > 10 µM (inactive); in the assay on CAKI-1 it was > 10 µM (inactive); with CCRF-CEM, > 10 µM (inactive); in the assay with DU-145 it was > 10 µM (inactive); with HCT-15, over 10 µM. Also, the GI50 was > 10 µM (inactive) in the assay with HOP-62; > 10 µM (inactive) in the assay on HOP-92; > 10 µM (inactive) with HT-29; > 10 µM (inactive) in the assay with IGROV-1; > 10 µM (inactive) in the assay on LOX IMVI; 3.52 µM (inactive) in the assay on MDA-MB-435. The GI50 in the assay with OVCAR-3, in the assay on OVCAR-8, with SF-295, in the assay with SK-MEL-2, with SN12C and with SR was > 10 µM (inactive) in each case. Further, the GI50 with SW-620 is > 10 µM (inactive).

A word on the GI50: it is the concentration giving 50% growth inhibition.
